According to US20240165129A1, “METHODS OF TREATING PAIN AND DEPRESSION” (priority 2022, published 2024):

System: primary cultured mouse cortical neurons
Settings: 10 μM, pH 6.0, n=8

C[C@@]12CCC[C@H]1[C@@H]1C[C@@H](O)[C@@]3(O)C[C@@H](O)CC[C@]3(C)[C@H]1CC2 [Andro-triol, 5α-androst-3β, 5, 6β-triol]
protection against acid-induced neuronal injury (LDH release), analogs: none of them shows significant protection

CC(C)CCC[C@@H](C)[C@H]1CC[C@H]2[C@@H]3C[C@H]4O[C@]45C[C@@H](O)CC[C@]5(C)[C@H]3CC[C@]12C [5β,6β-epoxy-Chol, 5β,6β-epoxycholesterol]
protection against acid-induced neuronal injury (LDH release), analogs: none of them shows significant protection

CC(C)CCC[C@@H](C)[C@H]1CC[C@H]2[C@@H]3C[C@@H]4O[C@@]45C[C@@H](O)CC[C@]5(C)[C@H]3CC[C@]12C [5α,6α-epoxy-Chol, 5α,6α-epoxycholesterol]
protection against acid-induced neuronal injury (LDH release), analogs: none of them shows significant protection
